According to patent US12188050B2, “Kidney organoids and methods of manufacturing” (MURDOCH CHILDRENS RESEARCH INSTITUTE, priority 2017, dated 2025):
“Also recorded” adds a separate entry of the source.

Experiments:
Format in all cases: cell-based, human
[1] = test system: kidney micro-organoids at day 7+18; assay: Drug toxicity testing in micro kidney organoids (TUNEL staining, RNA analysis); conditions: 0, 2.5 and 5 μg/ml for 24 hours
Description: FIG. 8. Kidney micro-organoids provides a platform for drug toxicity screening.
To evaluate the suitability of using the suspension culture method described herein to test for drug toxicity of kidneys in vitro, drug toxicity studies were conducted. Organoids produced by the method at day 7+18 were collected and randomized into treatment groups in a 24 well low attachment plates in 250 μl of media. Organoids were stimulated with different concentrations of cytotoxic drug Adriamycin (0, 2.5 and 5 μg/ml) for 24 hours. After stimulation, media was removed and organoids were fixed with 2% PFA for immunofluorescence staining analysis for apoptosis by using TUNEL staining and some organoids were lysed for RNA analysis (FIG. 8A-8D).

[2] = test system: intermediate mesoderm (IM) cells differentiated from hPSCs or hES; assay: qPCR gene expression profiling of intermediate mesoderm at D7+0, FGF9 +/- 1 μM CHIR99021; conditions: low concentration CHIR (1 μM) days 5 to 7 with FGF9 and heparin; qPCR at D7+0
Description: FIG. 1. Generation of kidney micro-organoids in suspension culture. (A) Outline of the kidney micro-organoid differentiation protocol with images from a differentiation performed using CRL1502.C32 cells. (B) Bright field images showing uniform kidney micro-organoids on Day 7+18 (scale […]). (C, D1 and D2) Immunofluorescence and confocal images of micro-organoids showing formation of nephron segments independent of micro-organoid size and shape, including development of vascular structures (scale […]). (E) Bar graphs showing average fold change for intermediate mesoderm gene expression profiling by qPCR on Day 7+0 for FGF9+/−1 μM CHIR99021. The data represented as Mean, (F) Immunofluorescence for PAX2 for FGF9+/−1 μM CHIR99021 treatment (scale 50 μm) (D7+11). (G) Immunofluorescence and confocal images of nephron compartments within kidney micro-organoids; podocytes (NPHS1+ and MAFB+), proximal tubules (LTL+, CUBN+, LRP2+ and HNF4A+), distal tubules (ECAD), collecting duct (ECAD+ GATA3+) and endothelial cells (SOX17+ and PECAM1+) (scale 50 μm).
hPSCs or hES were differentiated into intermediate mesoderm by exposing cells to high concentration of CHIR (7 μM) for the first 4 days in APEL™ 2 or TeSR™-E6 media (Stem cell technologies) media with 3.5% protein free hybridoma media (PFHM) (Thermo Fischer), APEL™ (Stem cell technologies) or E6 media (Stem cell technologies). […]

[3] = test system: kidney organoids from monolayers of hPSC; assay: Effect of duration of initial 7 μM CHIR99021 on kidney organoid patterning (confocal microscopy); conditions: then low CHIR and FGF9+heparin to Day 7
Description: FIG. 2. […] (A) Confocal image of micro-kidney organoid tubules on Day 7+18 showing FITC albumin uptake (scale 5 μm). (B) Confocal images of micro-kidney organoids generated using 4 different cell lines, including hES (H9 GAP-Trap Luc2, hES3 SOX17mCherry) and iPS (CRL1502.C32 and CRL1502.3) on Day 7+18 with antibodies labelling different nephron segments (scale 50 μm). (C, D and E) hES3 SOX17mCherry derived micro-organoids generated after exposure to different days of initial 7 μM CHIR99021 for 3, 4, 5 and 6 days treatment showing bright field (C, scale 100 μm) and immunofluorescence confocal images showing SOX17+ vasculature (D) and MEIS1/2/3+ stroma (E) (scale 100 μm).
To optimise differentiation within the kidney organoid protocol, monolayers of hPSC were stimulated using a fixed concentration of CHIR99021 (7 μM) for varying durations (3, 4, 5 and 6 days) before continued culture to Day 7 in the presence of low CHIR and FGF9+heparin (FIGS. 2C, 2D and 2E). After 18 days, resulting kidney organoids were evaluated for kidney structure using confocal microscopy (FIGS. 2C, 2D and 2E). […] 4 days of initial 7 μM CHIR99021 induction was confirmed as optimal and used in further studies.

[4] = test system: C32 derived swirler kidney organoids; assay: Glomerular podocyte maturation in swirler organoids with atRA (immunofluorescence, qPCR)
Description: FIG. 7. All Trans-Retinoic Acid helps in the improvement of glomerular maturation in kidney micro-organoids. Immunofluorescence analysis of C32 swirler organoids generated by swirler suspension culture. (A) Organoids generated without supplementation at atRA. […] (C) qPCR analysis of organoids generated with and without atRA at different time points (D7+11 and D7+18).
To determine whether addition of all trans retinoic acid (atRA) would facilitate glomerular maturation of the organoids produced by the swirler culture method described in Examples 1-3, atRA was supplemented in the media after D7+0. All trans retinoic acid (2.5 μM) was added from D7+5 to D7+10 on C32 derived swirler organoids (FIG. 5).

## COc1cccc2c1C(=O)c1c(O)c3c(c(O)c1C2=O)C[C@@](O)(C(=O)CO)C[C@@H]3O[C@H]1C[C@H](N)[C@H](O)[C@H](C)O1 [Adriamycin]
[1]
  toxicity by expression of TUNEL apoptotic marker: induces dose dependent toxicity
[1]; RNA analysis
  expression of kidney specific genes in micro-organoids: reduces the expression of kidney specific genes

## Cc1c[nH]c(-c2cnc(NCCNc3ccc(C#N)cn3)nc2-c2ccc(Cl)cc2Cl)n1 [CHIR99021]
[2]
  expression of PAX2, LHX1 and OSR1 (cap mesenchyme) compared to short CHIR exposure groups: more than 2 folds
  increase in expression of Wnt11 and GATA3 (ureteric epithelium) compared to short CHIR exposure groups: more than 2 fold
[3]; 7 μM CHIR99021 for 4 or 5 days
  kidney organoid structure after 18 days: generated kidney organoids containing patterning nephrons
[3]; 7 μM CHIR99021 for 3 days
  kidney organoid structure after 18 days: failed to generate a kidney morphology
[3]; 7 μM CHIR99021 for 6 days
  kidney organoid structure after 18 days: generating larger kidney organoids with greater NPHS1 staining, contained an expanded MEIS1^+ stromal population apparently compromising epithelial structure

## CC1=C(/C=C/C(C)=C/C=C/C(C)=C/C(=O)O)C(C)(C)CCC1 [atRA, all trans retinoic acid]
[4]; 2.5 μM atRA from D7+5 to D7+10, analysis after D7+18
  podocyte phenotype by immunofluorescence compared to control group: improved the podocyte phenotype; also recorded: improved glomerular podocyte maturation
[4]; 2.5 μM atRA, D7+11 and D7+18 samples
  mRNA expression of glomerular and proximal tubular markers (qPCR) compared to control: increased expression of glomerular markers such as NPHS1 and proximal tubular markers like CUBN
